Test: xn = mol fraction of the nth substance listed

CCCCCCCCCCC + CCCCCCCCCO
viscosity [mPa·s], 100 kPa
Settings	x1 = 0.1008	x1 = 0.2004	x1 = 0.2999	x1 = 0.3992	x1 = 0.5014	x1 = 0.5978	x1 = 0.6993	x1 = 0.7958	x1 = 0.9
293.15 K	8.362	6.114	4.688	3.479	2.709	2.208	1.803	1.531	1.326
298.15 K	6.989	5.181	4.013	3.028	2.391	1.972	1.634	1.419	1.216
303.15 K	5.885	4.422	3.464	2.653	2.124	1.777	1.529	1.296	1.117
308.15 K	4.99	3.802	3.012	2.342	1.904	1.613	1.391	1.185	1.03
313.15 K	4.264	3.291	2.636	2.084	1.718	1.5	1.271	1.09	0.956
318.15 K	3.665	2.868	2.326	1.867	1.561	1.367	1.164	1.004	0.889
323.15 K	3.17	2.503	2.066	1.685	1.461	1.249	1.07	0.928	0.826

CCCCCCCCCCC + CCCCCCCCO
viscosity [mPa·s], 100 kPa
Settings	x1 = 0.0994	x1 = 0.2003	x1 = 0.2994	x1 = 0.3986	x1 = 0.498	x1 = 0.5983	x1 = 0.6948	x1 = 0.7982	x1 = 0.899
293.15 K	6.831	5.141	3.839	3.004	2.374	1.965	1.669	1.463	1.271
298.15 K	5.749	4.369	3.31	2.622	2.109	1.77	1.542	1.349	1.164
303.15 K	4.874	3.746	2.878	2.322	1.929	1.622	1.402	1.233	1.071
308.15 K	4.161	3.23	2.519	2.063	1.725	1.473	1.281	1.132	0.987
313.15 K	3.577	2.805	2.223	1.847	1.559	1.341	1.175	1.043	0.915
318.15 K	3.091	2.455	1.978	1.67	1.413	1.224	1.079	0.963	0.848
323.15 K	2.694	2.167	1.774	1.507	1.286	1.123	0.996	0.892	0.792

CCCCCCCCCCC + CCCCCCCO
viscosity [mPa·s], 100 kPa
Settings	x1 = 0.0999	x1 = 0.1998	x1 = 0.3007	x1 = 0.399	x1 = 0.5004	x1 = 0.5988	x1 = 0.7002	x1 = 0.8004	x1 = 0.8983
293.15 K	5.317	4.102	3.124	2.518	2.05	1.798	1.547	1.383	1.239
298.15 K	4.517	3.516	2.713	2.219	1.831	1.626	1.407	1.263	1.137
303.15 K	3.86	3.037	2.378	1.975	1.654	1.47	1.284	1.158	1.048
308.15 K	3.32	2.641	2.202	1.816	1.537	1.342	1.176	1.063	0.968
313.15 K	2.876	2.315	1.956	1.633	1.369	1.229	1.078	0.981	0.896
318.15 K	2.509	2.089	1.751	1.477	1.247	1.128	0.994	0.908	0.833
323.15 K	2.251	1.86	1.575	1.34	1.14	1.04	0.918	0.843	0.777

CCOC(=O)CCC(=O)OCC + CCCCCCO
293.15 K, 100 kPa
Settings	viscosity [mPa·s]
x1 = 0.4999	2.495
x1 = 0.7999	2.495

OCCCl + CCCCCCO
viscosity [mPa·s], 101.33 kPa
Settings	x1 = 0.097	x1 = 0.1953	x1 = 0.2962	x1 = 0.3953	x1 = 0.5314	x1 = 0.5962	x1 = 0.7121	x1 = 0.7968	x1 = 0.8982
298.15 K	3.93	3.7	3.544	3.406	3.241	3.175	3.057	2.983	2.921
303.15 K	3.33	3.18	3.068	2.909	2.78	2.718	2.615	2.551	2.529
308.15 K	2.824	2.68	2.572	2.494	2.38	2.329	2.276	2.237	2.208

NC=O + CCCCCO
298.15 K, 100 kPa
Settings	viscosity [mPa·s]
x1 = 0.05608	3.38
x1 = 0.1142	3.39
x1 = 0.2182	3.48
x1 = 0.2483	3.57
x1 = 0.3487	3.73
x1 = 0.3776	3.77
x1 = 0.4665	3.98
x1 = 0.4951	4.02
x1 = 0.5681	4.15
x1 = 0.6207	4.23
x1 = 0.7099	4.32
x1 = 0.7533	4.33
x1 = 0.8001	4.23
x1 = 0.8518	4.07
x1 = 0.9349	3.69

OCCCl + CCCCCO
viscosity [mPa·s], 101.33 kPa
Settings	x1 = 0.0959	x1 = 0.194	x1 = 0.2912	x1 = 0.3946	x1 = 0.4922	x1 = 0.5939	x1 = 0.6962	x1 = 0.8018	x1 = 0.8986
298.15 K	3.401	3.282	3.2	3.138	3.088	3.045	3.02	2.98	2.92
303.15 K	2.941	2.86	2.78	2.731	2.705	2.69	2.661	2.62	2.56
308.15 K	2.58	2.5	2.441	2.401	2.384	2.378	2.34	2.323	2.25

CCCCCCCCCCC + CCCCO
viscosity [mPa·s], 100 kPa
Settings	x1 = 0.1003	x1 = 0.1998	x1 = 0.3006	x1 = 0.4	x1 = 0.5006	x1 = 0.6013	x1 = 0.6989	x1 = 0.8018	x1 = 0.8991
293.15 K	2.391	–	1.749	1.549	1.398	–	1.223	–	–
298.15 K	2.107	–	–	1.391	1.264	1.177	1.119	–	–
303.15 K	–	–	1.399	1.257	1.15	1.076	1.028	0.997	0.974
308.15 K	–	–	1.261	1.141	1.05	0.99	0.949	0.923	–
313.15 K	–	1.288	1.141	1.04	0.964	0.913	0.879	0.857	0.838
318.15 K	–	1.163	1.037	0.952	0.888	0.845	0.817	0.798	0.781
323.15 K	1.199	1.054	0.947	0.874	0.82	0.785	0.761	0.746	0.73

CN1CCC[C@H]1c1cccnc1 + CCCCO
100 kPa
Settings	viscosity [mPa·s]
298.15 K, x1 = 0.3931	3.155
303.15 K, x1 = 0.7	3.205
313.15 K, x1 = 0.1	1.885

NC=O + CCCCO
Settings	viscosity [mPa·s]
293.15 K, 101 kPa, x1 = 0.1093	3.225
298.15 K, 100 kPa, x1 = 0.09212	2.58
298.15 K, 100 kPa, x1 = 0.1905	2.67
298.15 K, 100 kPa, x1 = 0.2439	2.76
298.15 K, 100 kPa, x1 = 0.2798	2.82
298.15 K, 100 kPa, x1 = 0.3484	2.96
298.15 K, 100 kPa, x1 = 0.4402	3.17
298.15 K, 100 kPa, x1 = 0.5809	3.46
298.15 K, 100 kPa, x1 = 0.6667	3.58
298.15 K, 100 kPa, x1 = 0.7277	3.65
298.15 K, 100 kPa, x1 = 0.7869	3.66
298.15 K, 100 kPa, x1 = 0.8345	3.64
298.15 K, 100 kPa, x1 = 0.8771	3.6
298.15 K, 100 kPa, x1 = 0.9257	3.53
298.15 K, 100 kPa, x1 = 0.9728	3.43
